Values quoted from earlier work as cited in US20070191304A1, “Methods for performing percutaneous coronary intervention” (priority 2005, published 2007).

Settings: bivalirudin plus GP IIb/IIIa inhibitors

## bivalirudin
  Primary endpoint of death, myocardial infarction, urgent revascularization and major bleeding, compared to UFH plus planned GP IIb/IIIa inhibitors: noninferior
